# Assay results taken from the kinase profiling compilation of Christmann-Franck et al. (2016).
# Key:
# Experiment in all cases: radiometric filter-binding kinase assay, Kinase HotSpot
# Settings in all cases: compound 0.5 µM; ATP 10 µM
# GSG2 (human) = GSG2 (human) (UniProt Q8TF76)
# GRK7 (human) = GRK7 (human) (UniProt Q8WTQ7)
# INSRR (human) = INSRR (human) (UniProt P14616)
# MARK1 (human) = MARK1 (human) (UniProt Q9P0L2)
# NEK7 (human) = NEK7 (human) (UniProt Q8TDX7)
# [1] = system: MKNK1 (human), Q9BUB5 [T385D; 165-205 del]
# PRKCB1 (human) = PRKCB1 (human) (UniProt P05771)
# MARK2 (human) = MARK2 (human) (UniProt Q7KZI7)
# PHKG1 (human) = PHKG1 (human) (UniProt Q16816)
# CHUK (human) = CHUK (human) (UniProt O15111)
# NEK9 (human) = NEK9 (human) (UniProt Q8TD19)
# FGR (human) = FGR (human) (UniProt P09769)
# ABL1 (human) = ABL1 (human) (UniProt P00519)
# MLTK (human) = MLTK (human) (UniProt Q9NYL2)
# ACVR1B (human) = ACVR1B (human) (UniProt P36896)
# MAPK3 (human) = MAPK3 (human) (UniProt P27361)
# CSNK1D (human) = CSNK1D (human) (UniProt P48730)
# PDGFRA (human) = PDGFRA (human) (UniProt P16234)
# NEK3 (human) = NEK3 (human) (UniProt P51956)
# CSF1R (human) = CSF1R (human) (UniProt P07333)
# TEK (human) = TEK (human) (UniProt Q02763)
# PRKACA (human) = PRKACA (human) (UniProt P17612)
# DYRK1B (human) = DYRK1B (human) (UniProt Q9Y463)
# WNK3 (human) = WNK3 (human) (UniProt Q9BYP7)
# CLK3 (human) = CLK3 (human) (UniProt P49761)
# CAMK4 (human) = CAMK4 (human) (UniProt Q16566)
# AKT2 (human) = AKT2 (human) (UniProt P31751)
# FGFR1 (human) = FGFR1 (human) (UniProt P11362)
# PLK1 (human) = PLK1 (human) (UniProt P53350)
# CDK6 CCND1 (human) = CDK6 CCND1 (human) (UniProt Q00534+P24385)
# SRPK3 (human) = SRPK3 (human) (UniProt Q9UPE1)
# FES (human) = FES (human) (UniProt P07332)
# AXL (human) = AXL (human) (UniProt P30530)
# MAPK9 (human) = MAPK9 (human) (UniProt P45984)
# CAMK2B (human) = CAMK2B (human) (UniProt Q13554)
# FLT3 (human) = FLT3 (human) (UniProt P36888)
# SLK (human) = SLK (human) (UniProt Q9H2G2)
# PTK6 (human) = PTK6 (human) (UniProt Q13882)
# IRAK1 (human) = IRAK1 (human) (UniProt P51617)
# CDC42BPA (human) = CDC42BPA (human) (UniProt Q5VT25)
# STK25 (human) = STK25 (human) (UniProt O00506)
# MYLK (human) = MYLK (human) (UniProt Q15746)
# Sequence of CDC42BPA (human) (Q5VT25 whole entry, looked up): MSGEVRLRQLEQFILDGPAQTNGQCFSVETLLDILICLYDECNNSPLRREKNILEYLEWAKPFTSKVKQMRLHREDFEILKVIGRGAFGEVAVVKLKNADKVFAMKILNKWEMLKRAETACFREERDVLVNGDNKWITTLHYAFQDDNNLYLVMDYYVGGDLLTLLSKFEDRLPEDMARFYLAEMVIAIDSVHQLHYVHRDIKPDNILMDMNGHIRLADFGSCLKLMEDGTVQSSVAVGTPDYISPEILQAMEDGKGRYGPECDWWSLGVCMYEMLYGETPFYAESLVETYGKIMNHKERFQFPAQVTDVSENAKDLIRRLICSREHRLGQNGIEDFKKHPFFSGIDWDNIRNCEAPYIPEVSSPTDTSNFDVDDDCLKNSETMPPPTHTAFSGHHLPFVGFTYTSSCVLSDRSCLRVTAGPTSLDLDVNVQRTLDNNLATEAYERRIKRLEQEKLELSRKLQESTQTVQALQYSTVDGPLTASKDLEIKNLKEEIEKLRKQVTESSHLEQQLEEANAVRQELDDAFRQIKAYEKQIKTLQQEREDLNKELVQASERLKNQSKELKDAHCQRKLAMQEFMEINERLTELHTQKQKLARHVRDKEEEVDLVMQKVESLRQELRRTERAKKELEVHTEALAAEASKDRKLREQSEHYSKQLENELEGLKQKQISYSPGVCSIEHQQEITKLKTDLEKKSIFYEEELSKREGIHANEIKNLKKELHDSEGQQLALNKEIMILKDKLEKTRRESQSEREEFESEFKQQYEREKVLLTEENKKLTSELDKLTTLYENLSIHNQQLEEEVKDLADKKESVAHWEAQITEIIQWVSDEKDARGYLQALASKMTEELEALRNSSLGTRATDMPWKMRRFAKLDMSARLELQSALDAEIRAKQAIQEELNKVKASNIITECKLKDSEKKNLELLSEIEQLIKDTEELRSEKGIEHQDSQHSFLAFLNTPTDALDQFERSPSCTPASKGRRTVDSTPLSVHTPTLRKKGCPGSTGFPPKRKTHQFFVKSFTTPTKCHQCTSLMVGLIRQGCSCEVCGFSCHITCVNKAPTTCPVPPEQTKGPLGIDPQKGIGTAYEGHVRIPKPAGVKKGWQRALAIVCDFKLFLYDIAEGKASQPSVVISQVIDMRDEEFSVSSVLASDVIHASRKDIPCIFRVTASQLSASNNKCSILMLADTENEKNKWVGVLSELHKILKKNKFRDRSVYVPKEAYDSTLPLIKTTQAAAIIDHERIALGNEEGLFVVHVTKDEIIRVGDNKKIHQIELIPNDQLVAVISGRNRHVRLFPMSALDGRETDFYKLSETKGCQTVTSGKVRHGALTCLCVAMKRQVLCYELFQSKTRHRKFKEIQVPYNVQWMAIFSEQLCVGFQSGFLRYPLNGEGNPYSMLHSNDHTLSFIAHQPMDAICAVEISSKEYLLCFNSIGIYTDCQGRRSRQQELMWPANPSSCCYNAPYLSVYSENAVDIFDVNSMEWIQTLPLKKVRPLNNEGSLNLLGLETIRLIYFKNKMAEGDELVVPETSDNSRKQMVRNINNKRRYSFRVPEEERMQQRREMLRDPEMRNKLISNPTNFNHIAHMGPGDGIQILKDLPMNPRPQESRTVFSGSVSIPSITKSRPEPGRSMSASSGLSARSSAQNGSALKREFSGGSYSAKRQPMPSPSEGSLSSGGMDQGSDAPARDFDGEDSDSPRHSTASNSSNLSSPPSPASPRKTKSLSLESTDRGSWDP
# Sequence of TEK (human) (Q02763 whole entry, looked up): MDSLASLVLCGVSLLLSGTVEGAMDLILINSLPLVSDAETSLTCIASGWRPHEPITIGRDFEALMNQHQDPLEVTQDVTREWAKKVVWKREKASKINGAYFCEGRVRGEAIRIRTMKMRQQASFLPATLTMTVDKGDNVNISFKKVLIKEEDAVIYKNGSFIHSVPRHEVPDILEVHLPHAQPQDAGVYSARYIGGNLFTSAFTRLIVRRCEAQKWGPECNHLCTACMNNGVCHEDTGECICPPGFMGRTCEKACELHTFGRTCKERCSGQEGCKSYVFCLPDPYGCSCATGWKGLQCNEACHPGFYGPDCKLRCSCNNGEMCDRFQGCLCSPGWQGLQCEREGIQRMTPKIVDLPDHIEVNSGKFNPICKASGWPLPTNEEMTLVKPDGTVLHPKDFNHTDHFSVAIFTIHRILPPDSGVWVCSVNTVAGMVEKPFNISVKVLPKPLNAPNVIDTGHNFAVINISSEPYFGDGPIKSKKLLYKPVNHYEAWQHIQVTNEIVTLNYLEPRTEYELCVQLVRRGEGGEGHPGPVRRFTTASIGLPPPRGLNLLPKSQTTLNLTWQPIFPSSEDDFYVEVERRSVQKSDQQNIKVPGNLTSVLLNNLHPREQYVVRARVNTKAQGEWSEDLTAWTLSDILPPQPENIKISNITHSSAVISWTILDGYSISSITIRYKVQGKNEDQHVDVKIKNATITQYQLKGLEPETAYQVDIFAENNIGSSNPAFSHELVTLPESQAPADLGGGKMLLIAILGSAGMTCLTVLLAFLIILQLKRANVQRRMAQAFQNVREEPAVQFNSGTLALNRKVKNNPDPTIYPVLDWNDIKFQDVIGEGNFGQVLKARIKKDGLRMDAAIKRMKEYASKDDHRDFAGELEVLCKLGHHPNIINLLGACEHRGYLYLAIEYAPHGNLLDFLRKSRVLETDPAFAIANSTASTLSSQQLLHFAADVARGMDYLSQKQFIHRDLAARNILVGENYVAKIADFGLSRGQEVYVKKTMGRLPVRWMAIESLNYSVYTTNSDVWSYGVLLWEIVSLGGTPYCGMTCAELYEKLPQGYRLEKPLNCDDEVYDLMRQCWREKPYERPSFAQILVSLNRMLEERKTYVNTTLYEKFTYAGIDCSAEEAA
# Sequence of CSF1R (human) (P07333 whole entry, looked up): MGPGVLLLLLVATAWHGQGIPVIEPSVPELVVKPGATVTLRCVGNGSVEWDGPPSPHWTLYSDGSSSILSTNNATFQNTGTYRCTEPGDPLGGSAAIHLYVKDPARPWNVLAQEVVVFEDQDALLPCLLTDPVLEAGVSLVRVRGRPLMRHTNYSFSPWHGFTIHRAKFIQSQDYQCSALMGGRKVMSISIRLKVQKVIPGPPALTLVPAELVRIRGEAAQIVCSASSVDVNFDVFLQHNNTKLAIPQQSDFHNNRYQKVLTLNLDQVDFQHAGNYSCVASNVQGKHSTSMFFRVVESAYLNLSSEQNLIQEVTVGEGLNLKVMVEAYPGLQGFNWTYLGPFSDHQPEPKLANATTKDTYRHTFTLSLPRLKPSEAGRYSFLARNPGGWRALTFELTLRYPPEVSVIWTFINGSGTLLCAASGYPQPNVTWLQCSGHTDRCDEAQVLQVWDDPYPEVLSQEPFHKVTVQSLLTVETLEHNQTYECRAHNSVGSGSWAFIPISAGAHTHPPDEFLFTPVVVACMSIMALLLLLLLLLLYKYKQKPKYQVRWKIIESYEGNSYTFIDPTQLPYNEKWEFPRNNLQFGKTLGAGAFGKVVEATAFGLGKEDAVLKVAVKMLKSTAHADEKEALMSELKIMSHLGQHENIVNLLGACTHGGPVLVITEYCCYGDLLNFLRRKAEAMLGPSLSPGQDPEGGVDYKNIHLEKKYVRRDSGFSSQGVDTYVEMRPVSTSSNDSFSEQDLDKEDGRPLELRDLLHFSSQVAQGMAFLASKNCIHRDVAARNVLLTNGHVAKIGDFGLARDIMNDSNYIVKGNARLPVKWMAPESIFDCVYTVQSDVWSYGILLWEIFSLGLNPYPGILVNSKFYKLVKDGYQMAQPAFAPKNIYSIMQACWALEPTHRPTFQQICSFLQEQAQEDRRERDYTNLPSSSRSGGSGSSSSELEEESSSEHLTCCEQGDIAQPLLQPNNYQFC
# Sequence of FGFR1 (human) (P11362 whole entry, looked up): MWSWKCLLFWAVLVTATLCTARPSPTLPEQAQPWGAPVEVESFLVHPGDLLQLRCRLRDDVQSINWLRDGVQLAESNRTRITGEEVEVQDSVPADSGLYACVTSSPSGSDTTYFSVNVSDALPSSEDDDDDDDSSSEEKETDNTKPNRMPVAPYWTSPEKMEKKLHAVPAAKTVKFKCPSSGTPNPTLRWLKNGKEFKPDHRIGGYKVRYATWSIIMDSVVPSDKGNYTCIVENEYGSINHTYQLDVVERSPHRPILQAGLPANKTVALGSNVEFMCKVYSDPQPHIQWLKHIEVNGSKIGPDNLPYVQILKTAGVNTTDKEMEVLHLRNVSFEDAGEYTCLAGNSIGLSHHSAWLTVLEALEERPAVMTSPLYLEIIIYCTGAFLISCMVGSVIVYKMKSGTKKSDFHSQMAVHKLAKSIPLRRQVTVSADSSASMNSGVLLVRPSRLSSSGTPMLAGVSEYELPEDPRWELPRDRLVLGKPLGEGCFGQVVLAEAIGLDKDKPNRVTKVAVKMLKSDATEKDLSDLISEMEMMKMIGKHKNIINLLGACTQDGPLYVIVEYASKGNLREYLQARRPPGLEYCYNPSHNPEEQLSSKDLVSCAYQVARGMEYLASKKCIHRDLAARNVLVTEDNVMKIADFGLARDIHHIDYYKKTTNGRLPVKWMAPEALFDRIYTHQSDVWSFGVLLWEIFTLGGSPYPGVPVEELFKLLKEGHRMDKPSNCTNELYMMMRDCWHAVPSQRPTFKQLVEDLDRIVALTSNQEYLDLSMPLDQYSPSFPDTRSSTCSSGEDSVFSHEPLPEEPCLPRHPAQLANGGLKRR
# Sequence of PTK6 (human) (Q13882 whole entry, looked up): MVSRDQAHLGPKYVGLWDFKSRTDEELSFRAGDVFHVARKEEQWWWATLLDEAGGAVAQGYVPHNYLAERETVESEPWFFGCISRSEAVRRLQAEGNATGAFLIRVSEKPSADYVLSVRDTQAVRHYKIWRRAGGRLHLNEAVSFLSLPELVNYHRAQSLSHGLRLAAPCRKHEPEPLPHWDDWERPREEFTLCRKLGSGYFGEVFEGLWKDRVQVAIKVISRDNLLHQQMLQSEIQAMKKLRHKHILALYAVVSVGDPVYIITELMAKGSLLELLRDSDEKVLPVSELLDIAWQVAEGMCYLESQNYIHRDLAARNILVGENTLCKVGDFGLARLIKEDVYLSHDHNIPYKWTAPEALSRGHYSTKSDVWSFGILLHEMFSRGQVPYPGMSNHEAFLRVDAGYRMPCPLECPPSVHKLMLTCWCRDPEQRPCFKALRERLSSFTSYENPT
structure (smiles),measurement,setting,value
O=C1Nc2ccc(Br)cc2/C1=C\c1cc2c([nH]1)CCCC2,residual activity,GSG2 (human),88%
same,residual activity,GRK7 (human),85.2%
same,residual activity,INSRR (human),94.8%
same,residual activity,MARK1 (human),69%
same,residual activity,NEK7 (human),103%
same,residual activity,[1],106%
same,residual activity,PRKCB1 (human),97.4%
same,residual activity,MARK2 (human),77%
same,residual activity,PHKG1 (human),60.2%
same,residual activity,CHUK (human),99.1%
same,residual activity,NEK9 (human),85.6%
same,residual activity,FGR (human),67.7%
same,residual activity,ABL1 (human),91.8%
same,residual activity,MLTK (human),87.7%
same,residual activity,ACVR1B (human),99%
same,residual activity,MAPK3 (human),95%
same,residual activity,CSNK1D (human),72.4%
same,residual activity,PDGFRA (human),76.2%
same,residual activity,NEK3 (human),86.7%
same,residual activity,CSF1R (human),49.7%
same,residual activity,TEK (human),98.2%
same,residual activity,PRKACA (human),96.5%
same,residual activity,DYRK1B (human),93.9%
same,residual activity,WNK3 (human),93.8%
same,residual activity,CLK3 (human),101%
same,residual activity,CAMK4 (human),97.5%
same,residual activity,AKT2 (human),90.3%
same,residual activity,FGFR1 (human),76.7%
same,residual activity,PLK1 (human),102%
same,residual activity,CDK6 CCND1 (human),90.4%
same,residual activity,SRPK3 (human),77.8%
same,residual activity,FES (human),83.8%
same,residual activity,AXL (human),90%
same,residual activity,MAPK9 (human),99.4%
same,residual activity,CAMK2B (human),85.8%
same,residual activity,FLT3 (human),3.86%
same,residual activity,SLK (human),73.4%
same,residual activity,PTK6 (human),82.3%
same,residual activity,IRAK1 (human),97%
same,residual activity,CDC42BPA (human),81.9%
same,residual activity,STK25 (human),102%
same,residual activity,MYLK (human),95.7%
N#Cc1c[nH]c2c[nH]/c(=N\Cc3cccnc3)cc2/c1=N\c1ccc(F)c(Cl)c1,residual activity,GSG2 (human),82.5%
same,residual activity,GRK7 (human),95.5%
same,residual activity,INSRR (human),97%
same,residual activity,MARK1 (human),91.6%
same,residual activity,NEK7 (human),102%
same,residual activity,[1],73.2%
same,residual activity,PRKCB1 (human),104%
same,residual activity,MARK2 (human),93.2%
same,residual activity,PHKG1 (human),92%
same,residual activity,CHUK (human),96.3%
same,residual activity,NEK9 (human),96.3%
same,residual activity,FGR (human),84.5%
same,residual activity,ABL1 (human),93.4%
same,residual activity,MLTK (human),106%
same,residual activity,ACVR1B (human),99%
same,residual activity,MAPK3 (human),100%
same,residual activity,CSNK1D (human),88.4%
same,residual activity,PDGFRA (human),94.3%
same,residual activity,NEK3 (human),56%
same,residual activity,CSF1R (human),96.3%
same,residual activity,TEK (human),95.5%
same,residual activity,PRKACA (human),92.2%
same,residual activity,DYRK1B (human),65.2%
same,residual activity,WNK3 (human),92.4%
same,residual activity,CLK3 (human),96.7%
same,residual activity,CAMK4 (human),95.2%
same,residual activity,AKT2 (human),101%
same,residual activity,FGFR1 (human),83.4%
same,residual activity,PLK1 (human),92.6%
same,residual activity,CDK6 CCND1 (human),92.2%
same,residual activity,SRPK3 (human),96.4%
same,residual activity,FES (human),108%
same,residual activity,AXL (human),103%
same,residual activity,MAPK9 (human),100%
same,residual activity,CAMK2B (human),97.4%
same,residual activity,FLT3 (human),83.6%
same,residual activity,SLK (human),86.6%
same,residual activity,PTK6 (human),84.1%
same,residual activity,IRAK1 (human),114%
same,residual activity,CDC42BPA (human),80%
same,residual activity,STK25 (human),95.6%
same,residual activity,MYLK (human),105%
CN(C)c1ccc(/C=C2\C(=O)Nc3ccccc32)cc1,residual activity,GSG2 (human),88.5%
same,residual activity,GRK7 (human),100%
same,residual activity,INSRR (human),94.5%
same,residual activity,MARK1 (human),97.3%
same,residual activity,NEK7 (human),102%
same,residual activity,[1],97.3%
same,residual activity,PRKCB1 (human),96.1%
same,residual activity,MARK2 (human),105%
same,residual activity,PHKG1 (human),99.1%
same,residual activity,CHUK (human),93.4%
same,residual activity,NEK9 (human),99.8%
same,residual activity,FGR (human),90%
same,residual activity,ABL1 (human),103%
same,residual activity,MLTK (human),96.5%
same,residual activity,ACVR1B (human),93.4%
same,residual activity,MAPK3 (human),102%
same,residual activity,CSNK1D (human),69%
same,residual activity,PDGFRA (human),79.9%
same,residual activity,NEK3 (human),95.2%
same,residual activity,CSF1R (human),77.5%
same,residual activity,TEK (human),102%
same,residual activity,PRKACA (human),104%
same,residual activity,DYRK1B (human),106%
same,residual activity,WNK3 (human),98.1%
same,residual activity,CLK3 (human),89.4%
same,residual activity,CAMK4 (human),97.8%
same,residual activity,AKT2 (human),98.1%
same,residual activity,FGFR1 (human),92%
same,residual activity,PLK1 (human),103%
same,residual activity,CDK6 CCND1 (human),101%
same,residual activity,SRPK3 (human),98.7%
same,residual activity,FES (human),97.8%
same,residual activity,AXL (human),93.8%
same,residual activity,MAPK9 (human),103%
same,residual activity,CAMK2B (human),108%
same,residual activity,FLT3 (human),15.3%
same,residual activity,SLK (human),103%
same,residual activity,PTK6 (human),98.8%
same,residual activity,IRAK1 (human),102%
same,residual activity,CDC42BPA (human),101%
same,residual activity,STK25 (human),90.2%
same,residual activity,MYLK (human),90.5%
